The record followed here is patent publication US7393869B2, “Methods of using thiazolidine derivatives to treat cancer or inflammation” (QLT Inc., priority 2002, dated 2008).

In one test the test system is PC3 Cells. As to the kind of experiment: Cell proliferation (3H-thymidine incorporation). The format is cell-based. The note with it: Homo sapiens, PC-3. From the text: (§1) This procedure (Jelinkova, R. B. et al., “Antiproliferative effect of a lectin- and anti-Thy-1.2 antibody-targeted HPMA copolymer-bound doxorubicin on primary and metastatic human colorectal carcinoma and on human colorectal carcinoma transfected with the mouse Thy-1.2 gene”, Bioconjug. Chem. (2000, September-October), Vol. 11, No. 5, pp. 664-73) is used to assess the effect compounds have on various cell lines with respect to proliferation. The rate of anchorage-independent growth of various tumor cells is quantified by measuring the amount of free isotopic thymidine that has been incorporated into the cells over a period of time. The effect of any compound to inhibit the proliferation of various tumor cells could be used as an indication of its ability to prevent disease progression in cancer.
(§2) Cultured tumour cells are harvested cells as per normal procedures: i.e. trypsinize, centrifuge and count cells. A volume of 90 μL is used to seed 5,000 cells/well in a 96 well plate. Cells are incubated for 24 hours at 37° C. under 5% CO2. After incubation, cells should be 80-90% confluent.
(§3) ^3H-thymidine (Amersham) is diluted in cell culture media to a concentration of 100 μCi/mL. The test compound is diluted in the thymidine broth to 10× the final desired concentration.
(§4) Then 10 μL of diluted compound is added to the 90 μL of cells already present in the 96-well plates. Six replicates wells are done per treatment in columns 2 to 11. Plates were mixed by rocking.
(§5) A known cytotoxic compound such as staurosporine is used in relatively high concentrations as a positive control in column 1. Diluted DMSO is used as a negative control in column 12. The plate is incubated for exactly 24 hours at 37° C.
(§6) After incubation, plates are observed under the microscope for obvious cell death, abnormal cell shape, crystal formation of the compound, etc. Then 25 μL volume of cold 50% TCA is added slowly to the 100 μL volume already in each well, and incubated for 1-2 hours at 4° C. The plates are then washed 5× in tap water and allowed to dry completely (usually overnight) at ambient temperature. Finally, 100 μL of scintillation fluid is added to each well and the plates are counted in a Wallac 1450 Microbeta™ counter according to user manual instructions.
(§7) The amount of inhibition is determined by the following formula: % inhibition=100−[(AVG treatment−AVG positive control)/[…]]
For orientation: Dividing cells build labelled thymidine or BrdU into new DNA.

In the next test the test system is H460 Cells. Put plainly: Cell proliferation (3H-thymidine incorporation). The note with it: Homo sapiens, NCI-H460. Type of test: cell-based.
Text: as §1, §2, §3, §4, §5, §6, §7

The next test concerns the target T1, PTPN12 (Homo sapiens, UniProt Q05209).
T1 construct: The truncated version was used as it was far easier to handle and gave parallel results to the full length protein; made in house; host or cells: bacterial strain ER2566
T1 sequence (Q05209 28-293 limits assumed): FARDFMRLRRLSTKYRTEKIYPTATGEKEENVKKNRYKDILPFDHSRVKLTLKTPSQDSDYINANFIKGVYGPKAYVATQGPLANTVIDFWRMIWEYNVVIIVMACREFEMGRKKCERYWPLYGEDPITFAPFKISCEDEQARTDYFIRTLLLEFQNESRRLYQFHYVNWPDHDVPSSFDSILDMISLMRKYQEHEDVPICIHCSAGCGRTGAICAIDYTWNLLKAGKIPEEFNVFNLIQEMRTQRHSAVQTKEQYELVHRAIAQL
As to the kind of experiment: In vitro phosphatase assay (malachite green, phosphate release from ppC SRC 60 peptide). Type of test: biochemical. The note with it: read-out: Inhibition of PTPN12 IC50. The source says:
Expression of human truncated PTPN12 (PTP-PEST-N) as a fusion protein required that the cDNA be ligated into the polyclonal site situated in frame and upstream of the intein gene of the IMPACT™ expression vector pTWIN-II. The truncated version was used as it was far easier to handle and gave parallel results to the full length protein in comparison testing. For the purpose of simplicity, PTP-PEST-N will be used interchangeably with PTPN12 in these Examples.
Active PTPN12 enzyme is expressed from the IMPACT™ vector system in the bacterial strain ER2566. Recombinant PTPN12 protein is purified from bacterial cells using affinity chromatography on chitin-agarose beads followed by a chemical process whereby PTPN12 is released from its affinity tag. A complete quantitative and qualitative analysis of the protein is monitored using Coomassie-Blue staining of SDS-PAGE separated preparations and by PTPN12-specific western blotting. […]
(§8) The enzyme (phosphatase) activity was determined in a reaction that measured phosphate relase from tyrosine phospho-specific peptides using a method first described by Harder et al., Biochem. J. (1994), Vol. 298, pp. 395-401. […]
(§9) The assay plate was incubated at room temperature (21° C.) for 15 minutes. […] The plate was “read” on Bio-tek Instruments EL312e microplate Bio-Kinetics™ Reader at 590 nm and the data collected as per instrument manual.

Another test addresses T2, PTPN2 (Homo sapiens, UniProt P17706).
T2 construct: made in house; host or cells: bacterial expression system (IMPACT, New England BioLabs)
T2 sequence (P17706 1-415): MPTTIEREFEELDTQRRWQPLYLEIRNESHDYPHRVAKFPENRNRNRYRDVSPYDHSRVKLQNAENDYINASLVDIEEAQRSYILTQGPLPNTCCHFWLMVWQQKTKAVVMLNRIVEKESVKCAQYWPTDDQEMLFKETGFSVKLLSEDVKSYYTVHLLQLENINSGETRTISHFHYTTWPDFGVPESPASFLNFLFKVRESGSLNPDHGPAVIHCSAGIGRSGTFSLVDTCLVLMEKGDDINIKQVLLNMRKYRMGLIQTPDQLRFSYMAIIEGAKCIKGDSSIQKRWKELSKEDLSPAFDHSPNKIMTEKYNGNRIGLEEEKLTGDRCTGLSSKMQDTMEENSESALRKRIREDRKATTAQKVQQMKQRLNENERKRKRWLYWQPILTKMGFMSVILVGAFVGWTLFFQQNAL
The description is as above. The format is biochemical. Particulars: read-out: Inhibition of PTPN2 IC50.
Text: PTPN2 was cloned from a human placental cDNA library in the IMPACT™ (New England BioLabs) bacterial expression system. The technology was first described by Chong et al., Gene (1997), Vol. 192, pp. 271-281. The IMPACT™ Protein Purification System was purchased commercially from New England BioLabs. The resulting product was used in the development of a protein phosphatase assay for high-throughput screening (HTS) of target molecules and in other assays described herein (see Example 2).
This activity was considered to be in the high range as compared to other recombinant protein tyrosine phosphatases assayed. […]
as §8, §9
(§10) The blank and negative controls were read, and blanks were subtracted from the average of negative control values and sample values, and the % inhibition was expressed by the following formula: % Inhibition=100−[corrected sample reading/corrected Negative Control reading*100].

The next test addresses T3, PTPN1 (Homo sapiens, UniProt P18031).
T3 sequence (P18031 1-435): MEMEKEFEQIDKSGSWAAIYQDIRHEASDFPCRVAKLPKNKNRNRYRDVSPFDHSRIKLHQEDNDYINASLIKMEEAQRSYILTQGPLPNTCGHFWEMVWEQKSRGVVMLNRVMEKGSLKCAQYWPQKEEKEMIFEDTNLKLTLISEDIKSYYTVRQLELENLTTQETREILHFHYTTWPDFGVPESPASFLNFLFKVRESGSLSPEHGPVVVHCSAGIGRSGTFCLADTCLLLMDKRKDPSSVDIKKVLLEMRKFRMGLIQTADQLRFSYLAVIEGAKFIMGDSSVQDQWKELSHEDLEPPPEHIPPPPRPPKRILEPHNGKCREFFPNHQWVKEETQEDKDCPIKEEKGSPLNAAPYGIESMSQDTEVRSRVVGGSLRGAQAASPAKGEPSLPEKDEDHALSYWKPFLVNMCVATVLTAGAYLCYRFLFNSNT
Described as above. The format is biochemical. The note with it: read-out: Inhibition of PTPN1 IC50. As for the experimental part: Compounds of formula (I) and formula (Ia) were tested in the following assay for their ability to inhibit the activity of the desired phosphatase.
The enzyme (phosphatase) activity was determined in a reaction that measured phosphate relase from tyrosine phospho-specific peptides using a method first described by Harder et al., Biochem. J. (1994), Vol. 298, pp. 395-401. This is a non-radioactive method for measuring free phosphate by the malachite green method first described by Van Veldhoven and Mannaerts, Anal Biochem. (1987), Vol. 161, pp. 45-48. 10× assay buffer (250 mM Tris:100 mM, β-mercaptoethanol, 50 mM EDTA; pH 7.2) was diluted to 5× concentration (conc.) with distilled H2O (dH2O). Then 71.4 μM of substrate working stock solution was prepared in dH2O. […]
as §9, §10

In test [1] the test system is prostate cancer cell line PC3. Put plainly: Cell migration in a Boyden chamber. The format is cell-based. The note with it: cell line not given. The source says:
A range of cell lines are used in this assay, particularly the prostate cancer cell line PC3 and PTPN12 mouse embryonic fibroblasts (MEFs). The role of PTPN12 in migration was established based on the observations of PTPN12 negative MEFs. Cell adhesion and migration are dynamic biological activities involving the assembly and disassembly of a large number of extracellular and intracellular molecules, for example, actin, which are regulated in turn by protein phosphorylation. […] Migration is reduced in PTPN12 knock-out MEFs. By extension, a PTPN12 inhibitor should reduce cell migration in a Boyden chamber. Therefore, as a readout for PTPN12 activity, the following assay is designed to analyze cell migration in Boyden chambers. […]
For tumour cell lines, stock cells (ie. PC3 cells) are grown to 50-70% confluency in T175 flasks. […] Fluorescence of migrated cells is read in a Fluoroskan Ascent FL™ (or equivalent) with bottom reading at excitation/emission wavelength of 485/538 nm. Only those cells that have migrated through the pores of the FluoroBlok™ membrane will be read. […]
Data is expressed as fluorescence unit (FU) from the sum of middle 25 areas per 24-well or as percentage of migration inhibition by following formula: % of invasion inhibition=100−FU of compound treated cell invasion/FU of DMSO treated cell invasion times 100. […]

Regarding `Cc1ccc(C=C2SC(=S)N(CCC(=O)Nc3ccc(S(N)(=O)=O)cc3)C2=O)cc1` [3-[5-(4-methylbenzylidene)-4-oxo-2-thioxothiazolidin-3-yl]-N-(4-sulfamoylphenyl)-propionamide], the values for the inhibition at 50 µM in the test on PC3 Cells and in the test on H460 Cells were 35% and 45%, respectively. Further, the IC50 at PTPN12 turned out to be 1.5 µM; at PTPN2 it was 1.6 µM; on PTPN1, 3 µM. At 25 µM the inhibition in test [1] was 55%.

Take `Cc1ccc(C=C2SC(=S)N(CCC(=O)Nc3ccc(S(=O)(=O)Nc4nccs4)cc3)C2=O)cc1` [3-[5-(4-methylbenzylidene)-4-oxo-2-thioxothiazolidin-3-yl]-N-[4-(thiazol-2-ylsulfamoyl)-phenyl]-propionamide]: the inhibition at 50 µM in the test with PC3 Cells was determined as 47%; in the test on H460 Cells it was 43%. In addition, the IC50 was 1.1 µM at PTPN12, 0.95 µM at PTPN2 and 1.5 µM at PTPN1. Moreover, testing at 25 µM in test [1] gave an inhibition of 87%.

By inhibition is commonly meant the drop in the measured response relative to a control, in per cent. A low value points to little suppression. What is called IC50 is the midpoint of a concentration-inhibition curve.
